Laboratory results: ChEMBL document CHEMBL1201862, “PubChem BioAssay data set” (2004)
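Grown in 96-well plates, cells were treated for 48 hours with each compound at five concentrations. Insufficient inhibition: endpoint recorded as highest concentration tested. Abbreviation: GI50, concentration required for 50% inhibition of growth.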 The source made the active and inactive calls. Rule as the data show it: active = GI50 up to about 1.1 µM and inactive = higher.

Key:
Experiment in all cases: growth of human tumour cells (NCI), 48 h
NCI-H23 = test system: NCI-H23
A549 = test system: A549
BT-549 = test system: BT-549
ACHN = test system: ACHN
M14 = test system: M14
COLO 205 = test system: COLO 205
SW-620 = test system: SW-620
NCI-H226 = test system: NCI-H226
OVCAR-4 = test system: OVCAR-4
OVCAR-8 = test system: OVCAR-8
K562 = test system: K562
MDA-MB-435 = test system: MDA-MB-435
MDA-N = test system: MDA-N
HOP-62 = test system: HOP-62
KM12 = test system: KM12
DU-145 = test system: DU-145
SNB-75 = test system: SNB-75
UACC-257 = test system: UACC-257
SF-539 = test system: SF-539

Measured: GI50

COC(=O)C(Cc1ccccc1)NC(=O)C(CCCNC(=N)N)NC(=O)OCc1ccccc1 (configuration not stated)
inactive: NCI-H23 > 100 µM | A549 > 100 µM | BT-549 > 100 µM | ACHN > 100 µM | M14 > 100 µM | COLO 205 > 100 µM | SW-620 > 100 µM | NCI-H226 > 100 µM | OVCAR-4 > 100 µM | OVCAR-8 > 100 µM | K562 > 100 µM | MDA-MB-435 > 100 µM | MDA-N > 100 µM | HOP-62 > 100 µM | KM12 > 100 µM | DU-145 > 100 µM | SNB-75 > 100 µM

S=C1CSc2c(ccc3ccccc23)N1
inactive: NCI-H23 > 100 µM | A549 67.1 µM | BT-549 > 100 µM | ACHN > 100 µM | M14 > 100 µM | COLO 205 > 100 µM | NCI-H226 > 100 µM | OVCAR-4 > 100 µM | UACC-257 > 100 µM | OVCAR-8 > 100 µM | K562 > 100 µM | MDA-MB-435 > 100 µM | MDA-N > 100 µM | HOP-62 > 100 µM | KM12 > 100 µM | DU-145 > 100 µM | SNB-75 > 100 µM

CC(C)(C)C(=O)CC1(O)C=C(O)C(O)(CC(=O)C(C)(C)C)O1 (configuration not stated)
inactive: NCI-H23 22.1 µM | A549 61.7 µM | BT-549 66.4 µM | M14 15.8 µM | COLO 205 21.7 µM | NCI-H226 18.3 µM | OVCAR-4 12.8 µM | UACC-257 42.3 µM | OVCAR-8 23.6 µM | K562 54.8 µM | MDA-MB-435 41.9 µM | MDA-N 43.2 µM | HOP-62 15.5 µM | SF-539 18.8 µM | KM12 63.5 µM | DU-145 50.2 µM

CC(=O)OCC1OC(SC2=N/C(=C\c3ccc(Br)s3)C(=O)N2CN2CCOCC2)C(OC(C)=O)C(OC(C)=O)C1OC(C)=O (configuration not stated)
inactive: NCI-H23 12.7 µM | BT-549 14.9 µM | ACHN 16.2 µM | COLO 205 18.8 µM | SW-620 14.9 µM | NCI-H226 11.3 µM | OVCAR-4 29.4 µM | UACC-257 16.6 µM | OVCAR-8 16.3 µM | K562 10.3 µM | MDA-MB-435 23.8 µM | MDA-N 18 µM | HOP-62 23 µM | KM12 17.2 µM | DU-145 16.5 µM | SNB-75 25.4 µM

COc1cc(/C=C2/SC(c3ccccc3)N(c3cccc([N+](=O)[O-])c3)C2=O)cc(OC)c1OC (configuration not stated)
inactive: NCI-H23 > 100 µM | A549 > 100 µM | BT-549 > 100 µM | ACHN > 100 µM | M14 > 100 µM | COLO 205 > 100 µM | SW-620 74.5 µM | NCI-H226 > 100 µM | OVCAR-4 > 100 µM | UACC-257 > 100 µM | OVCAR-8 > 100 µM | K562 > 100 µM | MDA-MB-435 26.9 µM | MDA-N 25.1 µM | HOP-62 > 100 µM | SF-539 > 100 µM | KM12 95.1 µM | DU-145 > 100 µM

O[C@@H]1[C@H](OC2c3ccccc3-c3ccccc32)[C@H](OCc2ccccc2)[C@@H]2OC[C@H]1O2
inactive: NCI-H23 > 100 µM | A549 34.6 µM | BT-549 > 100 µM | ACHN > 100 µM | M14 > 100 µM | COLO 205 > 100 µM | SW-620 > 100 µM | NCI-H226 > 100 µM | OVCAR-4 91 µM | UACC-257 > 100 µM | OVCAR-8 39.6 µM | K562 > 100 µM | MDA-MB-435 > 100 µM | MDA-N > 100 µM | HOP-62 25.8 µM | SF-539 23 µM | KM12 > 100 µM | DU-145 > 100 µM

CCCCCCc1cc2cc(C(=O)Nc3ccccc3F)c(=N)oc2cc1O
inactive: NCI-H23 3.18 µM | A549 6.97 µM | BT-549 5.36 µM | ACHN 6.08 µM | M14 10.2 µM | COLO 205 19.3 µM | SW-620 12.6 µM | OVCAR-4 4.93 µM | UACC-257 6.64 µM | OVCAR-8 2.89 µM | K562 3.7 µM | MDA-MB-435 3.39 µM | MDA-N 7.29 µM | HOP-62 14.3 µM | SF-539 12.6 µM | KM12 4.01 µM | DU-145 9.31 µM

CN(C)CCCn1cnc2cc(Cl)c(Cl)cc21
inactive: NCI-H23 > 100 µM | A549 > 100 µM | BT-549 66.7 µM | ACHN > 100 µM | M14 16.6 µM | COLO 205 79.3 µM | SW-620 > 100 µM | NCI-H226 > 100 µM | OVCAR-4 > 100 µM | UACC-257 19.8 µM | OVCAR-8 > 100 µM | K562 67.3 µM | MDA-MB-435 55.8 µM | MDA-N 34.1 µM | HOP-62 > 100 µM | KM12 > 100 µM | DU-145 > 100 µM | SNB-75 33.1 µM

NNC(=O)c1ccccc1NC(=O)/C(=C/c1ccccc1O)NC(=O)c1ccccc1
inactive: NCI-H23 38.4 µM | A549 > 100 µM | BT-549 31.8 µM | ACHN 17.9 µM | M14 55.6 µM | COLO 205 > 100 µM | SW-620 > 100 µM | NCI-H226 26.5 µM | OVCAR-4 27.3 µM | UACC-257 > 100 µM | OVCAR-8 18.1 µM | K562 > 100 µM | MDA-MB-435 57.7 µM | MDA-N 4.56 µM | SF-539 20.1 µM | KM12 5.62 µM | DU-145 > 100 µM | SNB-75 11.6 µM

CC(=O)O[C@H]1CC[C@@]2(C)C(=CC[C@@H]3[C@@H]2CC[C@]2(C)c4c(C)nn(-c5ccccc5)c4C[C@@H]32)C1
inactive: NCI-H23 13.2 µM | A549 35.9 µM | BT-549 9.95 µM | ACHN 19.5 µM | M14 53.8 µM | COLO 205 15.5 µM | SW-620 33.5 µM | NCI-H226 36.6 µM | OVCAR-4 72.6 µM | UACC-257 29.9 µM | OVCAR-8 40.7 µM | K562 2.65 µM | MDA-MB-435 45.7 µM | MDA-N 23.1 µM | HOP-62 15.5 µM | KM12 23 µM | DU-145 17 µM | SNB-75 15.6 µM

Nc1cc2ncnc(Nc3cccc(Br)c3)c2cn1
inactive: NCI-H23 57 µM | A549 35.9 µM | BT-549 > 100 µM | ACHN 3.44 µM | M14 38 µM | COLO 205 50.4 µM | SW-620 > 100 µM | NCI-H226 23.8 µM | OVCAR-4 39.9 µM | UACC-257 39.9 µM | OVCAR-8 36.1 µM | K562 > 100 µM | MDA-MB-435 54.3 µM | MDA-N 31 µM | HOP-62 29.4 µM | SF-539 21.9 µM | KM12 22.2 µM | SNB-75 33.7 µM

O=C1NC2ON=C(c3ccccc3)C2C2ON=C(c3ccccc3)N12 (configuration not stated)
inactive: NCI-H23 > 100 µM | A549 > 100 µM | BT-549 > 100 µM | ACHN > 100 µM | M14 > 100 µM | COLO 205 > 100 µM | NCI-H226 > 100 µM | UACC-257 > 100 µM | OVCAR-8 64.6 µM | MDA-N 39.6 µM | HOP-62 > 100 µM | SF-539 > 100 µM | KM12 69.2 µM | DU-145 > 100 µM | SNB-75 > 100 µM

CCOC(=O)c1c(NC(=O)c2ccc(OC)cc2)sc2c1CCCC2
inactive: NCI-H23 > 100 µM | A549 > 100 µM | BT-549 > 100 µM | ACHN > 100 µM | M14 > 100 µM | COLO 205 > 100 µM | SW-620 > 100 µM | NCI-H226 > 100 µM | UACC-257 > 100 µM | OVCAR-8 > 100 µM | K562 > 100 µM | MDA-MB-435 > 100 µM | MDA-N > 100 µM | HOP-62 > 100 µM | SF-539 > 100 µM | KM12 > 100 µM | DU-145 > 100 µM

CC[C@@]1(CCC(=O)NCCc2c[nH]c3ccccc23)CCC(=O)N2CCc3c([nH]c4ccccc34)[C@H]21
inactive: NCI-H23 10.3 µM | A549 8.73 µM | BT-549 4.31 µM | ACHN 15.3 µM | M14 12.6 µM | COLO 205 24.2 µM | SW-620 25.8 µM | NCI-H226 20 µM | OVCAR-4 12.9 µM | UACC-257 14 µM | K562 7.45 µM | MDA-MB-435 7.36 µM | MDA-N 12.6 µM | HOP-62 37 µM | SF-539 12 µM | KM12 4.19 µM | DU-145 29 µM

O=S1(=O)OCCOS(=O)(=O)C1S(=O)(=O)c1cccc2ccccc12
inactive: NCI-H23 > 100 µM | A549 > 100 µM | BT-549 > 100 µM | ACHN > 100 µM | M14 > 100 µM | COLO 205 > 100 µM | SW-620 70.5 µM | OVCAR-4 > 100 µM | UACC-257 > 100 µM | OVCAR-8 > 100 µM | K562 41.4 µM | MDA-MB-435 > 100 µM | MDA-N > 100 µM | HOP-62 > 100 µM | KM12 > 100 µM | DU-145 > 100 µM

COc1cc2nc(-c3ccccc3F)nc(O)c2cc1OC
inactive: NCI-H23 > 100 µM | A549 > 100 µM | BT-549 > 100 µM | ACHN > 100 µM | M14 > 100 µM | COLO 205 > 100 µM | NCI-H226 > 100 µM | OVCAR-4 > 100 µM | UACC-257 > 100 µM | OVCAR-8 > 100 µM | K562 > 100 µM | MDA-N > 100 µM | HOP-62 92.5 µM | KM12 > 100 µM | DU-145 > 100 µM | SNB-75 > 100 µM
